Experimental data as given in PubChem BioAssay AID1963984 (Molecular Pharmacology Branch, DTP, NCI, 2024).

System: 233499-124-R-J3-PDC spheroids with HUVEC/MSC, viability
Assay: Anticancer human tumor 233499-124-R-J3-PDC patient-derived colon adenocarcinoma cell line growth inhibition [PI3K]
Details: for IC50: curve of first compound; for viability, T/C: stronger effect = lower value
How it was run: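 Agents were dosed from a top concentration near clinical Cmax (otherwise 10 microM) in half-log decrements, alone or combined with PI3K inhibitors. The spheroids contain tumor cells plus endothelial (HUVEC) and MSC stroma; viability is measured.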
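Note: spheroids exposed to agents for seven days before readout.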
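Throughout, for viability, T/C: percent viability relative to DMSO vehicle control taken as 100%.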

CC(Cn1ccc(-c2ccc(C#N)c(Cl)c2)n1)NC(=O)c1cc(C(C)O)[nH]n1 (configuration not stated) + CC(Nc1ccc2c(c1)OCCn1cc(N3C(=O)OCC3C(F)F)nc1-2)C(N)=O
IC50 (second compound 0.00316 µM): > 10 µM
IC50 (second compound 0.01 µM): > 10 µM
IC50 (second compound 0.0316 µM): > 10 µM
IC50 (second compound 0.1 µM): > 10 µM
IC50 (second compound 0.316 µM): 7.39 µM
IC50 (second compound 1 µM): > 10 µM
viability, T/C (second compound 0.00316 µM, first compound 0.0316 µM): 97.5%
viability, T/C (second compound 0.00316 µM, first compound 0.1 µM): 84.3%
viability, T/C (second compound 0.00316 µM, first compound 0.316 µM): 86.6%
viability, T/C (second compound 0.00316 µM, first compound 1 µM): 83.1%
viability, T/C (second compound 0.00316 µM, first compound 3.16 µM): 90.8%
viability, T/C (second compound 0.00316 µM, first compound 10 µM): 97.7%
viability, T/C (second compound 0.01 µM, first compound 0.0316 µM): 99.5%
viability, T/C (second compound 0.01 µM, first compound 0.1 µM): 77.7%
viability, T/C (second compound 0.01 µM, first compound 0.316 µM): 96.2%
viability, T/C (second compound 0.01 µM, first compound 1 µM): 83.4%
viability, T/C (second compound 0.01 µM, first compound 3.16 µM): 82.5%
viability, T/C (second compound 0.01 µM, first compound 10 µM): 76.8%
viability, T/C (second compound 0.0316 µM, first compound 0.0316 µM): 92.1%
viability, T/C (second compound 0.0316 µM, first compound 0.1 µM): 82.4%
viability, T/C (second compound 0.0316 µM, first compound 0.316 µM): 67.9%
viability, T/C (second compound 0.0316 µM, first compound 1 µM): 93.9%
viability, T/C (second compound 0.0316 µM, first compound 3.16 µM): 101%
viability, T/C (second compound 0.0316 µM, first compound 10 µM): 83%
viability, T/C (second compound 0.1 µM, first compound 0.0316 µM): 83.1%
viability, T/C (second compound 0.1 µM, first compound 0.1 µM): 89.3%
viability, T/C (second compound 0.1 µM, first compound 0.316 µM): 90%
viability, T/C (second compound 0.1 µM, first compound 1 µM): 80.3%
viability, T/C (second compound 0.1 µM, first compound 3.16 µM): 74.4%
viability, T/C (second compound 0.1 µM, first compound 10 µM): 71%
viability, T/C (second compound 0.316 µM, first compound 0.0316 µM): 76%
viability, T/C (second compound 0.316 µM, first compound 0.1 µM): 63.7%
viability, T/C (second compound 0.316 µM, first compound 0.316 µM): 70.5%
viability, T/C (second compound 0.316 µM, first compound 1 µM): 73.6%
viability, T/C (second compound 0.316 µM, first compound 3.16 µM): 90.6%
viability, T/C (second compound 0.316 µM, first compound 10 µM): 41.2%
viability, T/C (second compound 1 µM, first compound 0.0316 µM): 62%
viability, T/C (second compound 1 µM, first compound 0.1 µM): 62%
viability, T/C (second compound 1 µM, first compound 0.316 µM): 47.4%
viability, T/C (second compound 1 µM, first compound 1 µM): 62.6%
viability, T/C (second compound 1 µM, first compound 3.16 µM): 66%
viability, T/C (second compound 1 µM, first compound 10 µM): 54.6%
